Measurements published in patent US20100069481A1, “METHODS AND COMPOSITIONS FOR THE TREATMENT OF CANCER” (Bionovo, Inc., priority 2008, published 2010).

What was measured:
[1] = test system: breast cancer cells (MDA MB 231, SKBr3); test: mode of cell death: Annexin V binding, DNA fragmentation; type: cell-based, human
Method: (§1) 1. Induction of the loss of the mitochondrial transmembrane potential (MTP). […] 2. Induction of reactive oxygen species (ROS). […] 3. […] 4. Compounds were tested for induction of DNA damage using test known as comet assay that allows detection of DNA damage in individual cells. […] 6. The mode of cell death (i.e., apoptosis versus necrosis) was studied using several criteria: conversion of cells to positivity for binding Annexin V; DNA fragmentation (characteristic of apoptotic death) and decrease in cellular ATP levels (commonly observed during necrotic death) (FIG. 5). 1. Induction of the loss of the mitochondrial transmembrane potential (MTP). […] 2. Induction of reactive oxygen species (ROS). […] 3. […] 4. Compounds were tested for induction of DNA damage using test known as comet assay that allows detection of DNA damage in individual cells. […] 6. The mode of cell death (i.e., apoptosis versus necrosis) was studied using several criteria: conversion of cells to positivity for binding Annexin V; DNA fragmentation (characteristic of apoptotic death) and decrease in cellular ATP levels (commonly observed during necrotic death) (FIG. 5).

[2] = test system: breast cancer cells (MDA MB 231, SKBr3); test: DNA damage, comet assay; type: cell-based, human
Method: as §1

[3] = test system: breast cancer cells (MDA MB 231, SKBr3); test: induction of ROS, CM-H2DCFDA staining; type: cell-based, human
Method: as §1
DCFDA is nonfluorescent in reduced form and is readily membrane-permeant. Cellular esterases cleave its acetate groups. The thiol-reactive chloromethyl group then binds to cellular thiols, trapping the dye inside the cell, where oxidation converts it to the fluorescent form. […] It is relatively insensitive to oxidation by superoxide.
FIG. 1. […] The indicated compounds were added to cells at 20 μg/ml growth medium, followed by addition of 10 μM CM-H2 DCFDA. Inhibitor of mitochondrial respiration, NaN3, was added at 10 mM. After 30 minute incubation, cells were washed in PBS and analyzed on FACScan for fluorescence.

[4] = test system: breast cancer cells (MDA MB 231, SKBr3); test: cellular ATP levels, ATP bioluminescence; type: cell-based, human
Method: as §1

[5] = test system: breast cancer cells (MDA MB 231, SKBr3); test: mitochondrially derived superoxide, MitoSOX staining; type: cell-based, human
Method: as §1

[6] = test system: two different breast cancer cell lines; test: induction of ROS (fold), compounds alone and in combination; type: cell-based; conditions: Table 11
Method: In order to better understand the combined activities of the isolated species, several flavanones and flavones isolated from Scutellaria barbata were tested individually and in combination. The flavanones and flavones tested are depicted in FIG. 8. These compounds 1-8 from were tested for induction of ROS, DNA damage and cell death, as described in Example 2.
The results set forth in Tables 10 and 11 were confirmed by performing the experiments in two different breast cancer cell lines.

Compound | cell death and its mode [1] | induction of DNA damage [2] | induction of cellular ROS [3] | cellular ATP levels [4] | generation of mitochondrial superoxide [5] | Induction of ROS (fold) [6] [fold]
O=c1cc(-c2ccc(O)cc2)oc2cc(O)c(O)c(O)c12 [Scutellarein] | cell death that has hallmarks of programmed necrosis | induce DNA damage | induce ROS, but of extra-mitochondrial origin | – | – | –
O=c1cc(-c2ccc(O)cc2)oc2cc(O)cc(O)c12 [Apigenin] | induce significant cell death characterized as apoptotic | do not induce DNA damage | – | slight but consistent increase in ATP levels | induce generation of superoxide whose origin is identified as mitochondrial | –
O=c1cc(-c2ccc(O)cc2)oc2c(O)c(O)cc(O)c12 [Isoscutellarein] | cell death that has hallmarks of programmed necrosis | induce DNA damage | induce ROS, but of extra-mitochondrial origin | – | – | –
O=C1CC(c2ccc(O)cc2)Oc2c(O)c(O)cc(O)c21 (stereo not drawn) [Isocarthamidin] | – | induce DNA damage | induce ROS, but of extra-mitochondrial origin | – | – | –
O=C1CC(c2ccc(O)cc2)Oc2cc(O)c(O)c(O)c21 (stereo not drawn) [Carthamidin] | – | induce DNA damage | induce ROS, but of extra-mitochondrial origin | – | – | –
O=c1cc(-c2ccc(O)cc2)oc2cc(O)cc(O)c12 [cmpd 4] | – | – | – | – | – | 0.6
